Laboratory results published in ChEMBL document CHEMBL1143608, “Novel C-17-heteroaryl steroidal CYP17 inhibitors/antiandrogens: synthesis, in vitro biological activity, pharmacokinetics, and antitumor activity in the LAPC4 human prostate cancer xenograft model” (J Med Chem, 2005).

Assays:
[1] = molecular target: T1, 3-oxo-5-alpha-steroid 4-dehydrogenase 2 (Homo sapiens) (UniProt P31213); test: (§1) Inhibition of [1-beta-2beta-3H]- -testosterone binding to human steroid 5-alpha-reductase type 2 of BPH tissue at 10 uM; format: functional
T1 sequence (whole entry): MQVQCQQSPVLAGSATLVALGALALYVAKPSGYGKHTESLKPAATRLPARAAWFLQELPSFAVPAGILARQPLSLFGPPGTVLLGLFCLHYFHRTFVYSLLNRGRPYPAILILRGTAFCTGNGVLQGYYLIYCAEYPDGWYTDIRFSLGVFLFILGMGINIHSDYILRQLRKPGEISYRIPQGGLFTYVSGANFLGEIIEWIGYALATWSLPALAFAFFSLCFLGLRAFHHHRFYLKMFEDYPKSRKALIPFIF

[2] = molecular target: T2, 3-oxo-5-alpha-steroid 4-dehydrogenase 1 (Homo sapiens) (UniProt P18405); test: Inhibition of human steroid 5-alpha-reductase type I expressed in DU-145 cells using [1-beta-3H]-androstenedione at a concentration of 10 uM; format: functional, cell-based
T2 sequence (whole entry): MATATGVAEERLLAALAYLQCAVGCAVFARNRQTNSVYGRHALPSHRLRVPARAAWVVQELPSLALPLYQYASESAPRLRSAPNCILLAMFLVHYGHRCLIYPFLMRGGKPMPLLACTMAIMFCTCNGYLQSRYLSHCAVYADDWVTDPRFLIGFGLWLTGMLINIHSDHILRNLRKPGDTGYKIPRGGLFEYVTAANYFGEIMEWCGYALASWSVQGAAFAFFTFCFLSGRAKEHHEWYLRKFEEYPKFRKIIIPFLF

[3] = Volume of distribution at 50 mg/kg upon subcutaneous administration was determined in mouse; n = 5; format: ADME, organism-based; design: dose 50 mg/kg, route subcutaneous; details: in vivo, sc
[4] = Half life at 50 mg/kg upon subcutaneous administration was determined in mouse; n = 5; format: ADME, organism-based; design: dose 50 mg/kg, route subcutaneous; details: in vivo, sc
[5] = Area under curve at 50 mg/kg upon subcutaneous administration was determined in mouse; n = 5; format: ADME, organism-based; design: dose 50 mg/kg, route subcutaneous; details: in vivo, sc
[6] = Time required for maximum concentration at 50 mg/kg upon subcutaneous administration was determined in mouse; n = 5; format: ADME, organism-based; design: dose 50 mg/kg, route subcutaneous; details: in vivo, sc
[7] = Elimination rate constant at 50 mg/kg upon subcutaneous administration was determined in mouse; n = 5; format: ADME, organism-based; design: dose 50 mg/kg, route subcutaneous; details: in vivo, sc
[8] = […] at 50 mg/kg upon subcutaneous administration was determined in mouse; n = 5; format: ADME, organism-based; design: dose 50 mg/kg, route subcutaneous; details: in vivo, sc
[9] = molecular target: T3, 3-oxo-5-alpha-steroid 4-dehydrogenase 1 (Homo sapiens, UniProt P18405); test: Inhibition of [1-beta-3H]-androstenedione binding to human steroid 5-alpha-reductase type I expressed in DU-145 cells at 10 uM; format: functional, cell-based
T3 sequence (P18405 whole entry): T2 sequence (whole entry)

[10] = molecular target: T4, 3-oxo-5-alpha-steroid 4-dehydrogenase 2 (Homo sapiens, UniProt P31213); test: as §1; format: functional
T4 sequence (P31213 whole entry): T1 sequence (whole entry)

[11] = Maximum concentration at 50 mg/kg upon subcutaneous administration was determined in mouse; n = 5; format: ADME, organism-based; design: dose 50 mg/kg, route subcutaneous; details: in vivo, sc
[12] = Maximum concentration at 100 mg/kg upon subcutaneous administration was determined in mouse; n = 5; format: ADME, organism-based; design: dose 100 mg/kg, route subcutaneous; details: in vivo, sc
[13] = Volume of distribution at 100 mg/kg upon subcutaneous administration was determined in mouse; n = 5; format: ADME, organism-based; design: dose 100 mg/kg, route subcutaneous; details: in vivo, sc
[14] = Time required for maximum concentration at 100 mg/kg upon subcutaneous administration was determined in mouse; n = 5; format: ADME, organism-based; design: dose 100 mg/kg, route subcutaneous; details: in vivo, sc
[15] = Half life at 100 mg/kg upon subcutaneous administration was determined in mouse; n = 5; format: ADME, organism-based; design: dose 100 mg/kg, route subcutaneous; details: in vivo, sc
[16] = Area under curve at 100 mg/kg upon subcutaneous administration was determined in mouse; n = 5; format: ADME, organism-based; design: dose 100 mg/kg, route subcutaneous; details: in vivo, sc
[17] = molecular target: T2, 3-oxo-5-alpha-steroid 4-dehydrogenase 1 (Homo sapiens); test: Inhibition of [1-beta-3H]-androstenedione binding to human steroid 5-alpha-reductase type I expressed in DU-145 cells at 10 uM; ni=no inhibition up to 10 uM; format: functional, cell-based

Structure (SMILES)	inhibition [1]	inhibition [2]	Vd [3]	half-life [4]	AUC [5]	Tmax [6]	k el [7]	MRT [8]	IC50 [9]	IC50 [10]	Cmax [11]	T1/2 [4]	Cmax [12]	Kel [7]	Vd [13]	Tmax [14]	T1/2 [15]	AUC [16]	inhibition [17]
C[C@]12CCC(=O)C=C1CCC1C2CC[C@]2(C)C(n3nnc4ccccc43)=CCC12 (some centres not stated)	56%	21%																	
C[C@]12CCC(=O)C=C1CCC1C2CC[C@]2(C)C(n3cnc4ccccc43)=CCC12 (some centres not stated)			4.207 L/kg	37.9 min	10800 ng·h/mL	60 min	0.000305 s⁻¹	80 min	770 nM	480 nM	5150 ng/mL								
C[C@]12CC[C@H](O)CC1=CCC1C2CC[C@]2(C)C(n3cnc4ccccc43)=CCC12 (some centres not stated)	53%	4%	2.09899 L/kg		24000 ng·h/mL	30 min		65.4 min			16800 ng/mL	44.17 min	32200 ng/mL	0.942 h⁻¹	3.27639 L/kg	30 min	36.6 min	30200 ng·h/mL	
C[C@]12CC[C@H](O)CC1=CCC1C2CC[C@]2(C)C(n3nnc4ccccc43)=CCC12 (some centres not stated)	17%																		No inhibition
